# Source: patent US20240051968A1, “METHODS FOR TREATING SPINOCEREBELLAR ATAXIA TYPE 3” (PTC Therapeutics, Inc., priority 2021, published 2024)
# Assays:
# [1] = test system: Total ATXN3 (tATXN3) protein; assay: Endogenous Total ATXN3 (tATXN3) Protein Assay (MSD immunoassay of cell lysates); format: cell-based; details: cells incubated with compound 48 h; 7-point concentration curve; MSD detection in cell lysate
# Outline: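 Cells were plated at 10,000 per well on a 7-point, 3.16-fold compound dilution series in duplicate, with DMSO controls, and incubated 48 h at 37 °C. Lysates were run in an MSD sandwich immunoassay: mouse anti-ATXN3 capture, rabbit anti-ATXN3 secondary and SULFO-TAG anti-rabbit detection, read by electrochemiluminescence.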
# ATXN3 pre-mRNA = assay: RT-qPCR Assay to Quantify Exon 4 Skipping in ATXN3 pre-mRNA in Cells; format: cell-based; details: cells incubated with compound 24 h, 7-point concentration curve, GAPDH control
# Outline: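 Cells (10,000/well) treated 24 h at 37° C with 7-point, 3.16-fold compound dilutions in duplicate against DMSO controls. Lysates analysed by one-step RT-qPCR (40 cycles) for ATXN3 exon 4 skipping; percent skipping per dose fitted to dose-response to interpolate IC50.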
smiles,measurement,setting,value
"C[C@H](N)C(O)c1sc2c(NCc3cccs3)cc(Cl)nc2c1Cl (stereo partly drawn) [Cpd 127, (2S)-2-amino-1-(3,5-dichloro-7-{[(thiophen-2-yl)methyl]amino}thieno[3,2-b]pyridin-2-yl)propan-1-ol]",IC50,[1],≤ 500 nM
same,IC50,ATXN3 pre-mRNA,≤ 500 nM
"C[C@H](N)Cc1sc2c(NCc3cccs3)cc(Cl)nc2c1Br [Cpd 53, 2-[(2S)-2-aminopropyl]-3-bromo-5-chloro-N-[(thiophen-2-yl)methyl]thieno[3,2-b]pyridin-7-amine]",IC50,[1],≤ 500 nM
same,IC50,ATXN3 pre-mRNA,≤ 500 nM
"Cc1c(C[C@H](C)N)sc2c(NCc3nccs3)cc(Cl)nc12 [Cpd 57, 2-[(2S)-2-aminopropyl]-5-chloro-3-methyl-N-[(1,3-thiazol-2-yl)methyl]thieno[3,2-b]pyridin-7-amine]",IC50,[1],≤ 500 nM
same,IC50,ATXN3 pre-mRNA,≤ 500 nM
"C[C@H](N)C(O)c1sc2c(NCc3nccs3)cc(Cl)nc2c1Br (stereo partly drawn) [Cpd 159, (2S)-2-amino-1-(3-bromo-5-chloro-7-{[(1,3-thiazol-2-yl)methyl]amino}thieno[3,2-b]pyridin-2-yl)propan-1-ol]","IC50 (average), total ATXN3 protein",[1],inactive
same,"IC50, exon 4 skipping in ATXN3 pre-mRNA",ATXN3 pre-mRNA,inactive
"C[C@H](N)C(F)c1sc2c(NCc3cccs3)cc(Cl)nc2c1Cl (stereo partly drawn) [Cpd 130, 2-[(2S)-2-amino-1-fluoropropyl]-3,5-dichloro-N-[(thiophen-2-yl)methyl]thieno[3,2-b]pyridin-7-amine]",IC50,[1],≤ 500 nM
same,IC50,ATXN3 pre-mRNA,≤ 500 nM
"N[C@@H](CO)Cc1sc2c(NCc3ccco3)cc(Cl)nc2c1Br [Cpd 41, (2R)-2-amino-3-(3-bromo-5-chloro-7-{[(furan-2-yl)methyl]amino}thieno[3,2-b]pyridin-2-yl)propan-1-ol]",IC50,[1],≤ 500 nM
same,IC50,ATXN3 pre-mRNA,≤ 500 nM
"C[C@H](N)C(F)c1sc2c(NCc3nccs3)cc(Cl)nc2c1Br (stereo partly drawn) [Cpd 161, 2-[(2S)-2-amino-1-fluoropropyl]-3-bromo-5-chloro-N-[(1,3-thiazol-2-yl)methyl]thieno[3,2-b]pyridin-7-amine]",IC50,[1],500 to 1000 nM
same,IC50,ATXN3 pre-mRNA,≤ 500 nM
"N#CC[C@H](N)Cc1sc2c(NCc3cccs3)cc(Cl)nc2c1Cl [Cpd 106, (3S)-3-amino-4-(3,5-dichloro-7-{[(thiophen-2-yl)methyl]amino}thieno[3,2-b]pyridin-2-yl)butanenitrile]",IC50,[1],≤ 500 nM
same,IC50,ATXN3 pre-mRNA,≤ 500 nM
